# Experimental data: US6093732A, “4-hydroxyquinoline-3-carboxamides and hydrazides as antiviral agents” (Pharmacia & Upjohn Company, priority 1998, dated 2000)
# pIC50: −log10 of the molar value.
# Target: T1, HCMV polymerase (Human cytomegalovirus, UniProt P08546)
# T1 construct: made in house; host or cells: recombinant baculovirus-infected SF-9 cells
# Assay: HCMV polymerase scintillation proximity assay (SPA), modified version
# Assay type: biochemical
# Settings: CMV polymerase; Table 1; modified assay with 4.5 mM DTT, compounds in 100% DMSO; read-out: Antiviral Selective Polymerase IC50 Values, CMV
# How it was run: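 Recombinant polymerase (baculovirus/SF-9) in 5.4 mM HEPES pH 7.5, 11.7 mM KCl, 4.5 mM MgCl2, 0.36 mg/ml BSA, 90 nM 3H-dTTP, ±2 mM CHAPS; started with 6 nM biotinylated poly(dA)-oligo(dT), 25° C or 37° C, EDTA-stopped in linear range (30 min for HCMV). Streptavidin-SPA read; IC50 by linear regression. Modified version: 100% DMSO compound dilution, 4.5 mM DTT added.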
# T1 sequence (P08546 whole entry): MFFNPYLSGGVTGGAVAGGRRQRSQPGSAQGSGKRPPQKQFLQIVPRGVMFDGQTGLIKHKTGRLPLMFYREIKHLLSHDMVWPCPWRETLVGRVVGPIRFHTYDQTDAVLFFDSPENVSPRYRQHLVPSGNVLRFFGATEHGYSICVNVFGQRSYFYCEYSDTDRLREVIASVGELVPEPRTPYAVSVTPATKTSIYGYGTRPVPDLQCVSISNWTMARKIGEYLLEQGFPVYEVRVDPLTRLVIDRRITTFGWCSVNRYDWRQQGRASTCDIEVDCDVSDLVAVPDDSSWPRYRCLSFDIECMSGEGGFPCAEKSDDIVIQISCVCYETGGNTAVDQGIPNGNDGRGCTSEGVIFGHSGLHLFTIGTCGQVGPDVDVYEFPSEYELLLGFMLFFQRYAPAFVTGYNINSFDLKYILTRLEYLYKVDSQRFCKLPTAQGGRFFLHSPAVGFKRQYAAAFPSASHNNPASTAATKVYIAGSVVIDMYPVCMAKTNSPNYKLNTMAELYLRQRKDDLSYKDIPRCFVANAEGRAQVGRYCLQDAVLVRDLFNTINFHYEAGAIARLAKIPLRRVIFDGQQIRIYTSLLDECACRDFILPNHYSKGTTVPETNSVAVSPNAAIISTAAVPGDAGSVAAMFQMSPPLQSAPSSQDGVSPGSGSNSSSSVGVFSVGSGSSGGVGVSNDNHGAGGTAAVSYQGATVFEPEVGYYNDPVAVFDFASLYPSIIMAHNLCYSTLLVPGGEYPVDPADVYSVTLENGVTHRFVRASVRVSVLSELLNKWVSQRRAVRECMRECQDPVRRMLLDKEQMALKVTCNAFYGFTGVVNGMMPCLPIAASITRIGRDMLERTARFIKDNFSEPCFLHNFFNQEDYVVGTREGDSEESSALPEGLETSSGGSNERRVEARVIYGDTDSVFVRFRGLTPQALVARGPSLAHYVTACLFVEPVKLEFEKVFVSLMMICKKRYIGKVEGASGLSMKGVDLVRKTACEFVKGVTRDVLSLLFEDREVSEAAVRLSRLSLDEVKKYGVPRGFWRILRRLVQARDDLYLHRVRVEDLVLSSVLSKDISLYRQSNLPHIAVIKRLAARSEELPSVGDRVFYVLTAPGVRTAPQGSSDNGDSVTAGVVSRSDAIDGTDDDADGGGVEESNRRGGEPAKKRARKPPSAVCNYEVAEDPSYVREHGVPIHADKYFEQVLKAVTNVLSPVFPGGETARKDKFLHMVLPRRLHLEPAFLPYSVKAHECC
row,pIC50,Compound
1,4.84,"O=C(NCc1ccc(Cl)cc1)c1cnc2c(F)cc(S(=O)(=O)NCCc3c[nH]cn3)cc2c1O [Example 207, N-(4-chlorobenzyl)-8-fluoro-4-hydroxy-6-({[2-(1H-imidazol-4-yl)ethyl]amino}sulfonyl)-3-quinolinecarboxamide]"
2,5.07,"O=C(NCc1ccc(Cl)cc1)c1cnc2c(F)cc(S(=O)(=O)NCCNc3ccc([N+](=O)[O-])cn3)cc2c1O [Example 215, N-(4-chlorobenzyl)-8-fluoro-4-hydroxy-6-[({2-[(5-nitro-2-pyridinyl)amino]ethyl}amino)sulfonyl]-3-quinolinecarboxamide]"
3,4.73,"O=C(NCc1ccc(Cl)cc1)c1cnc2c(F)cc(S(=O)(=O)NCc3ccccn3)cc2c1O [Example 216, N-(4-chlorobenzyl)-8-fluoro-4-hydroxy-6-{[(2-pyridinylmethyl)amino]sulfonyl}-3-quinolinecarboxamide]"
4,4.82,"O=C(NCc1ccc(Cl)cc1)c1cnc2c(F)cc(S(=O)(=O)NCCc3ccccn3)cc2c1O [Example 217, N-(4-chlorobenzyl)-8-fluoro-4-hydroxy-6-({[2-(2-pyridinyl)ethyl]amino}sulfonyl)-3-quinolinecarboxamide]"
5,4.75,"O=C(NCc1ccc(Cl)cc1)c1cnc2c(F)cc(S(=O)(=O)NCc3cccnc3)cc2c1O [Example 218, N-(4-chlorobenzyl)-8-fluoro-4-hydroxy-6-{[(3-pyridinylmethyl)amino]sulfonyl}-3-quinolinecarboxamide]"
6,4.96,"O=C(NCc1ccc(Cl)cc1)c1cnc2c(F)cc(S(=O)(=O)NCc3ccncc3)cc2c1O [Example 219, N-(4-chlorobenzyl)-8-fluoro-4-hydroxy-6-{[(4-pyridinylmethyl)amino]sulfonyl}-3-quinolinecarboxamide]"
7,4.57,"CC(=O)NCCNS(=O)(=O)c1cc(F)c2ncc(C(=O)NCc3ccc(Cl)cc3)c(O)c2c1 [Example 227, 6-({[2-(acetylamino)ethyl]amino}sulfonyl)-N-(4-chlorobenzyl)-8-fluoro-4-hydroxy-3-quinolinecarboxamide]"
8,4.97,"O=C(NCc1ccc(Cl)cc1)c1cnc2c(F)cc(S(=O)(=O)NCCO)cc2c1O [Example 229, N-(4-chlorobenzyl)-8-fluoro-4-hydroxy-6-{[(2-hydroxyethyl)amino]sulfonyl}-3-quinolinecarboxamide]"
9,5.02,"O=C(NCc1ccc(Cl)cc1)c1cnc2c(F)cc(S(=O)(=O)NCCc3ccccc3)cc2c1O [Example 230, N-(4-chlorobenzyl)-8-fluoro-4-hydroxy-6-[(phenethylamino)sulfonyl]-3-quinolinecarboxamide]"
10,5.08,"O=C(NCc1ccc(Cl)cc1)c1cnc2c(F)cc(S(=O)(=O)NCCc3ccc(Cl)cc3)cc2c1O [Example 231, N-(4-chlorobenzyl)-6-{[(4-chlorophenethyl)amino]sulfonyl}-8-fluoro-4-hydroxy-3-quinolinecarboxamide]"

# More lines, now with the values behind:
row,Compound,pIC50
1,"O=C(NCc1ccc(Cl)cc1)c1cnc2c(F)cc(S(=O)(=O)NCC3CCCO3)cc2c1O (stereo not shown) [Example 208, N-(4-chlorobenzyl)-8-fluoro-4-hydroxy-6-{[(tetrahydro-2-furanylmethyl)amino]sulfonyl}-3-quinolinecarboxamide]",4.38
2,"O=C(NCc1ccc(Cl)cc1)c1cnc2c(F)cc(S(=O)(=O)NCc3cccs3)cc2c1O [Example 209, N-(4-chlorobenzyl)-8-fluoro-4-hydroxy-6-{[(2-thienylmethyl)amino]sulfonyl}-3-quinolinecarboxamide]",5.07
3,"O=C(NCc1ccc(Cl)cc1)c1cnc2c(F)cc(S(=O)(=O)NCCc3c[nH]c4ccccc34)cc2c1O [Example 210, N-(4-chlorobenzyl)-8-fluoro-4-hydroxy-6-({[2-(1H-indol-3-yl)ethyl]amino}sulfonyl)-3-quinolinecarboxamide]",5.32
4,"COc1ccc2[nH]cc(CCNS(=O)(=O)c3cc(F)c4ncc(C(=O)NCc5ccc(Cl)cc5)c(O)c4c3)c2c1 [Example 211, N-(4-chlorobenzyl)-8-fluoro-4-hydroxy-6-({[2-(5-methoxy-1H-indol-3-yl)ethyl]amino}sulfonyl)-3-quinolinecarboxamide]",5.29
5,"O=C(NCc1ccc(Cl)cc1)c1cnc2c(F)cc(S(=O)(=O)NCc3ccc4c(c3)OCO4)cc2c1O [Example 212, 6-{[(1,3-benzodioxol-5-ylmethyl)amino]sulfonyl}-N-(4-chlorobenzyl)-8-fluoro-4-hydroxy-3-quinolinecarboxamide]",4.84
6,"O=C(NCc1ccc(Cl)cc1)c1cnc2c(F)cc(S(=O)(=O)NCCN3CCOCC3)cc2c1O [Example 213, N-(4-chlorobenzyl)-8-fluoro-4-hydroxy-6-{[(2-morpholinoethyl)amino]sulfonyl}-3-quinolinecarboxamide]",4.72
7,"O=C(NCc1ccc(Cl)cc1)c1cnc2c(F)cc(S(=O)(=O)NCCCN3CCOCC3)cc2c1O [Example 214, N-(4-chlorobenzyl)-8-fluoro-4-hydroxy-6-{[(3-morpholinopropyl)amino]sulfonyl}-3-quinolinecarboxamide]",4.53
8,"O=C(NCc1ccc(Cl)cc1)c1cnc2c(F)cc(S(=O)(=O)NCc3ccc(Cl)cc3)cc2c1O [Example 220, N-(4-chlorobenzyl)-6-{[(4-chlorobenzyl)amino]sulfonyl}-8-fluoro-4-hydroxy-3-quinolinecarboxamide]",4.97
9,"COc1ccc(CNS(=O)(=O)c2cc(F)c3ncc(C(=O)NCc4ccc(Cl)cc4)c(O)c3c2)cc1 [Example 221, N-(4-chlorobenzyl)-8-fluoro-4-hydroxy-6-{[(4-methoxybenzyl)amino]sulfonyl}-3-quinolinecarboxamide]",4.90
10,"CC(C)(C)CNS(=O)(=O)c1cc(F)c2ncc(C(=O)NCc3ccc(Cl)cc3)c(O)c2c1 [Example 222, N-(4-chlorobenzyl)-8-fluoro-4-hydroxy-6-[(neopentylamino)sulfonyl]-3-quinolinecarboxamide]",4.94
11,"CC(O)CNS(=O)(=O)c1cc(F)c2ncc(C(=O)NCc3ccc(Cl)cc3)c(O)c2c1 (stereo not shown) [Example 223, N-(4-chlorobenzyl)-8-fluoro-4-hydroxy-6-{[(2-hydroxypropyl)amino]sulfonyl}-3-quinolinecarboxamide]",4.84
12,"O=C(NCc1ccc(Cl)cc1)c1cnc2c(F)cc(S(=O)(=O)NCC(O)CO)cc2c1O (stereo not shown) [Example 224, N-(4-chlorobenzyl)-6-{[(2,3-dihydroxypropyl)amino]sulfonyl}-8-fluoro-4-hydroxy-3-quinolinecarboxamide]",4.67
13,"O=C(NCc1ccc(Cl)cc1)c1cnc2c(F)cc(S(=O)(=O)NCC(c3ccccc3)c3ccccc3)cc2c1O [Example 225, N-(4-chlorobenzyl)-6-{[(2,2-diphenylethyl)amino]sulfonyl}-8-fluoro-4-hydroxy-3-quinolinecarboxamide]",5.07
14,"O=C(O)CCCCCCCCCCNS(=O)(=O)c1cc(F)c2ncc(C(=O)NCc3ccc(Cl)cc3)c(O)c2c1 [Example 226, 11-{[(3-{[(4-chlorobenzyl)amino]carbonyl}-8-fluoro-4-hydroxy-6-quinolinyl)sulfonyl]amino}undecanoic acid]",4.73
15,"O=C(NCc1ccc(Cl)cc1)c1cnc2c(F)cc(S(=O)(=O)NCCOCCO)cc2c1O [Example 228, N-(4-chlorobenzyl)-8-fluoro-4-hydroxy-6-({[2-(2-hydroxyethoxy)ethyl]amino}sulfonyl)-3-quinolinecarboxamide]",4.35
